# Measured values reported in the supplement of paper PMC11451515.
# Test system: P12-Ichikawa
# Assay: cell viability relative to DMSO control; higher = less cytotoxic
# Details: 48 h
# Method in brief: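 Viability is a per-plate percentage relative to DMSO wells, with cell-free wells as background. CellTiter-Glo One luminescence was read after 48 h at 37°C on 1536-well plates (5 μl) of NOMO1 or SEM (500 cells/well) or P12-Ichikawa (1000 cells/well) leukemia cells. The cells had been adapted for at least four passages in each medium and pin-dosed with library compounds in DMSO from 47 μM to 0.79 nM in 11 threefold steps.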
# [1] = HPLM + 10% dialyzed FBS, 0.000781 µM
# [2] = HPLM + 10% dialyzed FBS, 0.00234 µM
# [3] = HPLM + 10% dialyzed FBS, 0.00702 µM
# [4] = HPLM + 10% dialyzed FBS, 0.0211 µM
# [5] = HPLM + 10% dialyzed FBS, 0.0632 µM
# [6] = HPLM + 10% dialyzed FBS, 0.19 µM
# [7] = HPLM + 10% dialyzed FBS, 0.569 µM
# [8] = HPLM + 10% dialyzed FBS, 1.71 µM
# [9] = HPLM + 10% dialyzed FBS, 5.12 µM
# [10] = HPLM + 10% dialyzed FBS, 15.4 µM
# [11] = HPLM + 10% dialyzed FBS, 46.1 µM
# [12] = RPMI 5 mM glucose + 10% FBS, 0.000781 µM
# [13] = RPMI 5 mM glucose + 10% FBS, 0.00234 µM
# [14] = RPMI 5 mM glucose + 10% FBS, 0.00702 µM
# [15] = RPMI 5 mM glucose + 10% FBS, 0.0211 µM
# [16] = RPMI 5 mM glucose + 10% FBS, 0.0632 µM
# [17] = RPMI 5 mM glucose + 10% FBS, 0.19 µM
# [18] = RPMI 5 mM glucose + 10% FBS, 0.569 µM
# [19] = RPMI 5 mM glucose + 10% FBS, 1.71 µM
# [20] = RPMI 5 mM glucose + 10% FBS, 5.12 µM
# [21] = RPMI 5 mM glucose + 10% FBS, 15.4 µM
# [22] = RPMI 5 mM glucose + 10% FBS, 46.1 µM
# [23] = RPMI 5 mM glucose + 10% dialyzed FBS, 0.000781 µM
# [24] = RPMI 5 mM glucose + 10% dialyzed FBS, 0.00234 µM
# [25] = RPMI 5 mM glucose + 10% dialyzed FBS, 0.00702 µM
# [26] = RPMI 5 mM glucose + 10% dialyzed FBS, 0.0211 µM
# [27] = RPMI 5 mM glucose + 10% dialyzed FBS, 0.0632 µM
# [28] = RPMI 5 mM glucose + 10% dialyzed FBS, 0.19 µM
# [29] = RPMI 5 mM glucose + 10% dialyzed FBS, 0.569 µM
# [30] = RPMI 5 mM glucose + 10% dialyzed FBS, 1.71 µM
# [31] = RPMI 5 mM glucose + 10% dialyzed FBS, 5.12 µM
# [32] = RPMI 5 mM glucose + 10% dialyzed FBS, 15.4 µM
# [33] = RPMI 5 mM glucose + 10% dialyzed FBS, 46.1 µM
SMILES,cell viability [1],cell viability [2],cell viability [3],cell viability [4],cell viability [5],cell viability [6],cell viability [7],cell viability [8],cell viability [9],cell viability [10],cell viability [11],cell viability [12],cell viability [13],cell viability [14],cell viability [15],cell viability [16],cell viability [17],cell viability [18],cell viability [19],cell viability [20],cell viability [21],cell viability [22],cell viability [23],cell viability [24],cell viability [25],cell viability [26],cell viability [27],cell viability [28],cell viability [29],cell viability [30],cell viability [31],cell viability [32],cell viability [33]
O=C(Nc1ccc([N+](=O)[O-])cc1Cl)c1cc(Cl)ccc1O,95.3%,105%,98.6%,102%,107%,106%,105%,88%,46%,12.9%,24.7%,92.2%,90.9%,96%,92.9%,104%,106%,102%,71.6%,33%,17%,26.3%,81.5%,92.7%,81.4%,91.9%,87.2%,88%,94.2%,69%,31.4%,32.1%,5.22%
COCCCOc1ccnc(C[S+]([O-])c2nc3ccccc3[nH]2)c1C (centres undefined),107%,116%,109%,105%,121%,113%,123%,119%,125%,113%,117%,114%,109%,117%,106%,112%,125%,135%,130%,120%,131%,119%,105%,105%,114%,105%,134%,132%,131%,113%,115%,123%,121%
O=C(C1CC1)N1CC[C@@H](Cn2c(-c3ccc(-c4ccc5occc5c4)cc3)nc3cnccc32)C1,101%,117%,108%,114%,117%,126%,122%,127%,124%,119%,111%,92.7%,117%,120%,121%,131%,119%,124%,132%,111%,124%,83.5%,106%,112%,102%,120%,116%,128%,121%,128%,123%,119%,93%
OC(CCN1CCCCC1)(C2CC\3CC2\C=C3)C4=CC=CC=C4 (centres undefined),118%,128%,123%,98.1%,131%,122%,134%,135%,126%,123%,126%,,,,,,,,,,,,118%,122%,134%,91.4%,133%,127%,123%,134%,127%,126%,130%
Cc1cc(-c2nnc3n2CCCCC3)c(C)n1-c1ccccc1,120%,117%,122%,119%,118%,116%,118%,117%,115%,117%,104%,,,,,,,,,,,,125%,119%,118%,125%,118%,119%,124%,126%,122%,109%,111%
CCNC(=O)Nc1ccc(-c2nc3c(c(N4CCOC[C@@H]4C)n2)CCN(C2COC2)C3)cc1,114%,111%,113%,112%,110%,100%,82.1%,63.8%,56.6%,49.5%,46.1%,113%,113%,107%,116%,104%,96.8%,82.7%,61.6%,55.4%,41.3%,33.9%,114%,108%,111%,106%,103%,95.8%,79.3%,64.1%,54.6%,39.9%,32.7%
O=C(O)CSCC(=O)NC1CCSC1=O (centres undefined),108%,108%,112%,120%,120%,129%,110%,114%,117%,115%,116%,106%,108%,114%,130%,123%,114%,115%,116%,111%,116%,118%,103%,110%,114%,114%,117%,116%,115%,112%,106%,127%,111%
